Experimental data: patent US11407740B2 (priority 2018, dated 2022)
≈ marks a conversion by molar mass, not a printed value.

The compounds below were run on E. coli (assay: Bacterial susceptibility testing, MIC by broth microdilution (CLSI)). Details: Escherichia coli, read-out: E. coli MIC, broth microdilution, 35° C., 18-24 h.
Description: Minimal inhibitory concentrations (MIC) were determined by the broth microdilution method in accordance with the Clinical and Laboratory Standards Institute (CLSI) guidelines. In brief, organism suspensions were adjusted to a 0.5 McFarland standard to yield a final inoculum between 3×10^3 and 7×10^5 colony-forming units (CFU)/mL. Drug dilutions and inocula were made in sterile, cation adjusted Mueller-Hinton Broth (Beckton Dickinson). An inoculum volume of 100 μL was added to wells containing 100 μL of broth with 2-fold serial dilutions of drug.

SMILES | MIC
Cn1cc(C#Cc2ccc(C(N)Cc3nc[nH]c(=O)c3O)cc2)cn1 (stereo not shown) [Compound 200] | 1 to 8 µg/mL (≈ 2.98 to 23.9 µM)
O=c1[nH]cnc(CC(CNCc2ccn[nH]2)c2ccc(C#Cc3ccc(CN4CCOCC4)cc3)cc2)c1O (stereo not shown) [Compound 184] | 1 to 8 µg/mL (≈ 1.91 to 15.2 µM)
N#CC1CN(Cc2ccc(C#Cc3ccc([C@@H](CNCC(F)F)Cc4nc[nH]c(=O)c4O)c(F)c3)cc2)C1 (single isomer, unassigned) [Compound 279] | < 1 µg/mL
COC1CN(Cc2ccc(C#Cc3ccc(C(CNC4CC4)Cc4nc[nH]c(=O)c4O)c(F)c3)cc2)C1 (stereo not shown) [Compound 225] | < 1 µg/mL
O=c1[nH]cnc(CC(CNCCF)c2ccc(C#Cc3cnn(CC4CCOCC4)c3)cc2)c1O (stereo not shown) [Compound 206] | 1 to 8 µg/mL (≈ 2.09 to 16.7 µM)
O=c1[nH]cnc(CC(CO)c2ccc(C#Cc3ccc(CNC4CCS(=O)(=O)C4)cc3)cc2)c1O (stereo not shown) [Compound 38] | < 1 µg/mL
COC1CN(Cc2ccc(C#Cc3ccc(C(C)(CN[C@@H](C)CF)Cc4nc[nH]c(=O)c4O)cc3)cc2)C1 (mixture of isomers) [Compound 143] | < 1 µg/mL
COC1CN(Cc2ccc(C#Cc3ccc(C(CN[C@@H](C)CF)Cc4nc[nH]c(=O)c4O)cc3)cc2)C1 (mixture of isomers) [Compound 66] | < 1 µg/mL
CCOC(=O)C(Cc1nc[nH]c(=O)c1O)c1ccc(C#Cc2ccc(CNC3COC3)cc2)cc1 (stereo not shown) [Compound 50] | 1 to 8 µg/mL (≈ 2.11 to 16.9 µM)
O=c1[nH]cnc(C[C@@H](CNCC(F)F)c2ccc(C#Cc3ccc(CN4CCOCC4)cc3)cc2)c1O (single isomer, unassigned) [Compound 116] | 1 to 8 µg/mL (≈ 1.97 to 15.7 µM)
CC(C)(CF)NCC(Cc1nc[nH]c(=O)c1O)c1ccc(C#Cc2ccc(CN3CCOCC3)cc2)cc1 (stereo not shown) [Compound 301] | < 1 µg/mL
C[C@@H](CF)NCC(Cc1nc[nH]c(=O)c1O)c1ccc(C#Cc2ccc(CN3CC4(CCOC4)C3)cc2)cc1 (mixture of isomers) [Compound 127] | 1 to 8 µg/mL
NCC(=O)N1CC[C@@H](NCc2ccc(C#Cc3ccc(C(CO)Cc4nc[nH]c(=O)c4O)cc3)cc2)C1 (mixture of isomers) [Compound 262] | 8 to 32 µg/mL
C[C@@H](CF)NCC(Cc1nc[nH]c(=O)c1O)c1ccc(C#Cc2ccc(CN3CC(C#N)C3)cc2)cc1 (stereo partly shown) [Compound 81] | < 1 µg/mL
COC1CN(Cc2ccc(C#Cc3ccc([C@H](CNC4(C)CC4)Cc4nc[nH]c(=O)c4O)cc3)cc2)C1 (single isomer, unassigned) [Compound 250] | < 1 µg/mL
C[C@H](O)CNC[C@@H](Cc1nc[nH]c(=O)c1O)c1ccc(C#Cc2ccc(CN3CCOCC3)cc2)cc1 (single isomer, unassigned) [Compound 245] | < 1 µg/mL
COC1CN(Cc2ccc(C#Cc3ccc(C(CNCC(C)F)Cc4nc[nH]c(=O)c4O)cc3)cc2)C1 (stereo not shown) [Compound 101] | < 1 µg/mL
CNCc1ccc(C#Cc2ccc(C(CO)Cc3nc[nH]c(=O)c3O)cc2)cc1 (stereo not shown) [Compound 61] | 1 to 8 µg/mL (≈ 2.57 to 20.5 µM)
O=C(NCC(F)F)C(Cc1nc[nH]c(=O)c1O)c1ccc(C#Cc2ccc(Cn3ccnc3CO)cc2)cc1 (stereo not shown) [Compound 29] | < 1 µg/mL

SMILES | MIC
O=c1[nH]cnc(C[C@H](CO)c2ccc(C#C[C@H]3CC[C@H](CN4CCOCC4)CC3)cc2)c1O [Compound 204] | 8 to 32 µg/mL (≈ 17.7 to 70.9 µM)
O=C(NC1CC(F)(F)C1)C(Cc1nc[nH]c(=O)c1O)c1ccc(C#Cc2ccc(CN3CCOCC3)cc2)cc1 (stereo not shown) [Compound 25] | 1 to 8 µg/mL (≈ 1.82 to 14.6 µM)
C[C@@H](CF)NCC(Cc1nc[nH]c(=O)c1O)c1ccc(C#Cc2ccc(CN3CC4(COC4)C3)cc2)cc1 (mixture of isomers) [Compound 124] | 1 to 8 µg/mL
O=c1[nH]cnc(CC2CCc3cc(C#Cc4ccc(CN5CCOCC5)cc4)ccc32)c1O (stereo not shown) [Compound 209] | 1 to 8 µg/mL (≈ 2.26 to 18.1 µM)
N=[S@@]1(=O)CC[C@H](NCc2ccc(C#Cc3ccc(C(CO)Cc4nc[nH]c(=O)c4O)cc3)cc2)C1 (mixture of isomers) [Compound 151] | 1 to 8 µg/mL
O=c1[nH]cnc(CC(CO)n2ccc(C#Cc3ccc(CN4CCOCC4)cc3)cc2=O)c1O (stereo not shown) [Compound 211] | 8 to 32 µg/mL (≈ 17.3 to 69.2 µM)
O=c1[nH]cnc(C[C@H](CN2CC(O)C2)c2ccc(C#Cc3ccc(CN4CCOCC4)cc3F)cc2)c1O (single isomer, unassigned) [Compound 275] | < 1 µg/mL
O=c1[nH]cnc(C[C@H](CNCC(F)F)c2ccc(C#Cc3ccc(CN4CCOCC4)cc3)cc2F)c1O (single isomer, unassigned) [Compound 283] | < 1 µg/mL
O=C(CO)N1CCC(NCc2ccc(C#Cc3ccc(C(CO)Cc4nc[nH]c(=O)c4O)cc3)cc2)CC1 (stereo not shown) [Compound 157] | 1 to 8 µg/mL (≈ 1.94 to 15.5 µM)
O=C1NC(Cc2nc[nH]c(=O)c2O)c2ccc(C#Cc3ccc(CN4CCOCC4)cc3)cc21 (stereo not shown) [Compound 210] | 1 to 8 µg/mL (≈ 2.19 to 17.5 µM)
O=c1[nH]cnc(CC(CO)c2ccc(C#Cc3ccc(CN[C@H]4CCOC4)cc3)cc2)c1O (mixture of isomers) [Compound 8] | < 1 µg/mL
C[C@@H](CF)NCC(Cc1nc[nH]c(=O)c1O)c1ccc(C#Cc2ccc(CN3CC(C4COC4)C3)cc2)cc1 (mixture of isomers) [Compound 126] | 1 to 8 µg/mL
N#C[C@H]1CCN(Cc2ccc(C#Cc3ccc(C(CNCC(F)F)Cc4nc[nH]c(=O)c4O)cc3)cc2)C1 (mixture of isomers) [Compound 123] | < 1 µg/mL
C[C@@H](CF)NCC(Cc1nc[nH]c(=O)c1O)c1ccc(C#Cc2ccc(CN3CC4COCC4C3)cc2)cc1 (mixture of isomers) [Compound 84] | < 1 µg/mL
N#CCCNCC(Cc1nc[nH]c(=O)c1O)c1ccc(C#Cc2ccc(CN3CCOCC3)cc2)cc1 (stereo not shown) [Compound 130] | 1 to 8 µg/mL (≈ 2.01 to 16.1 µM)
O=c1[nH]cnc(CC(CO)c2ccc(C#Cc3ccc(CN4CC5(CCCO5)C4)cc3)cc2)c1O (stereo not shown) [Compound 42] | < 1 µg/mL
CC(CC#N)NCC(Cc1nc[nH]c(=O)c1O)c1ccc(C#Cc2ccc(CN3CCOCC3)cc2)cc1 (stereo not shown) [Compound 97] | < 1 µg/mL
COC1CN(Cc2ccc(C#Cc3ccc(C(CN[C@H](C)CF)Cc4nc[nH]c(=O)c4O)cc3)cc2)C1 (single isomer, unassigned) [Compound 69] | < 1 µg/mL
O=c1[nH]cnc(CC(CO)c2ccc(C#Cc3ccc(CNC4CCNCC4)cc3)cc2)c1O (stereo not shown) [Compound 259] | 1 to 8 µg/mL (≈ 2.18 to 17.4 µM)

Same assay, conditions: broth microdilution, 35° C., 18-24 h

SMILES | E. coli MIC
COC1CN(Cc2ccc(C#Cc3ccc(C(Cc4nc[nH]c(=O)c4O)CN4CC(F)C4)cc3)cc2)C1 (stereo not shown) [Compound 159] | A (A: ≤1 μg/mL)
O=c1[nH]cnc(CC(CN[C@H]2C[C@@H](F)C2)c2ccc(C#Cc3ccc(CN4CCOCC4)cc3)cc2)c1O (stereo partly shown) [Compound 76] | A (A: ≤1 μg/mL)
COC1CN(Cc2ccc(C#Cc3ccc(C(Cc4nc[nH]c(=O)c4O)CN4C(=O)OC[C@@H]4C)cc3)cc2)C1 (stereo partly shown) [Compound 122] | A (A: ≤1 μg/mL)
O=C(NCCF)C(Cc1nc[nH]c(=O)c1O)c1ccc(C#Cc2ccc(CN3CCOCC3)cc2)cc1 (stereo not shown) [Compound 20] | A (A: ≤1 μg/mL)
CO[C@@H]1CCN(Cc2ccc(C#Cc3ccc(C(CN[C@@H](C)CF)Cc4nc[nH]c(=O)c4O)cc3)cc2)C1 (single isomer, unassigned) [Compound 87] | B (B: >1 μg/mL to ≤8.0 μg/mL)
CO[C@@H]1CCN(Cc2ccc(C#Cc3ccc(C(CNCC(C)F)Cc4nc[nH]c(=O)c4O)cc3)cc2)C1 (single isomer, unassigned) [Compound 136] | D (D: >32 μg/mL)
O=C(NCCF)C(Cc1nc[nH]c(=O)c1O)c1ccc(C#Cc2ccc(CN3CCOCC3)cc2)cc1 (stereo not shown) [Compound 21] | B (B: >1 μg/mL to ≤8.0 μg/mL)
O=c1[nH]cnc(CC(CNC2CC2)c2ccc(C#Cc3ccc(CN4CCOCC4)cc3)cc2)c1O (stereo not shown) [Compound 120] | B (B: >1 μg/mL to ≤8.0 μg/mL)
